Experimental data reported in patent publication US8778871B2 (Takeda Pharmaceutical Company Limited, priority 2004, dated 2014).
Non-standard residues stand in square brackets, D forms with d. No end group written: not given here. *: point of attachment. Phe(4-F) = N[C@@H](Cc1ccc(F)cc1)C(=O)O; Arg(Me) = CNC(=N)NCCC[C@H](N)C(=O)O; Butyryl = CCCC(=O)*; Bz = O=C(c1ccccc1)*; GABA = NCCCC(=O)O; azaGly = NNC(=O)O; βAla = NCCC(=O)O

Columns and labels:
hOT7T175 [1] = molecular target: T1, hOT7T175 (Homo sapiens, UniProt Q969F8); assay: Intracellular Ca ion level-increasing activity using FLIPR (180 seconds; specific activity to Metastin (1-54)); format: cell-based; conditions: hOT7T175/CHO, change in intracellular calcium ion level for 180 seconds, Tables 21-23
T1 construct: expressed in transfected cells
T1 sequence (Q969F8 whole entry L364H): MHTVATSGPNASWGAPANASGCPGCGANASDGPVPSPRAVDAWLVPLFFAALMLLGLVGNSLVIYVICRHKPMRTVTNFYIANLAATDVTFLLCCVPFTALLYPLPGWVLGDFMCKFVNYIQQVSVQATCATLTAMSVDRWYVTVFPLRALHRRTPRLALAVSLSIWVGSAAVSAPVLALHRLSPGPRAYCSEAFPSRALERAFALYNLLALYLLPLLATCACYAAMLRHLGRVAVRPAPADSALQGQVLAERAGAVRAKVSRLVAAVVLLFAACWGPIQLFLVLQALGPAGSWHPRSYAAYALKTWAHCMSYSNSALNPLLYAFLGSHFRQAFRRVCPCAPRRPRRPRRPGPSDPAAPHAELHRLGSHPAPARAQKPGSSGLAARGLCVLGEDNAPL

hOT7T175 [2] = molecular target: T2, hOT7T175 (Homo sapiens, UniProt Q969F8, L364H); format: cell-based; conditions: hOT7T175/CHO, FLIPR, evaluation for 40 seconds after initiation of the reaction
T2 construct: expressed in transfected cells
T2 sequence (Q969F8 whole entry L364H): as above
Experimental: The intracellular Ca ion level-increasing activity was measured using FLIPR as in TEST EXAMPLE 2.

[3] = Blood testosterone level decreasing effect in mature male rat (2 mM peptide solution, ALZET osmotic pump); format: in vivo; conditions: 2 mM peptide solution in distilled water, ALZET osmotic pump s.c., 6 days, Tables 28 and 29
Experimental: (§1) This peptide solution was filled in 5 ALZET osmotic pumps (Model 2001, 0.2 ml in volume, release rate: 0.001 ml/hr, DURECT Corporation). The ALZET pumps filled with the peptide solution were implanted subcutaneously in 5 CD(SD)IGS male rats of 9 weeks old after birth (Charles River Japan, Inc.) on the back under ether anesthesia by one pump for one animal. For negative control, distilled water (Otsuka Pharmaceutical Co., Ltd.) was filled in 5 ALZET osmotic pumps, which were similarly implanted in 5 male CD(SD)IGS rats (Charles River Japan, Inc.), respectively. These pump-implanted rats were fed for 6 days under normal feeding conditions. After weighing, the animal was decapitated to collect blood. After 0.03 ml/ml blood of aprotinin solution (Trasylol, Bayer) containing 0.1 mg/ml EDTA.2Na was added to blood, the mixture was centrifuged at 1,800 G for 25 minutes to isolate/recover plasma. From the plasma obtained, 0.05 ml was applied to radioimmunoassay (DPC.Total Testosterone Kit, Diagnostic Products Corporation) to measure the plasma testosterone level of each rat. The value below the limit of measurement (0.04 ng/ml of plasma level) in radioimmunoassay was treated as 0. A mean value of the testosterone levels from 5 rats receiving the peptide was calculated and a relative value (percent) of the mean value to a mean value from 5 rats receiving distilled water.

[4] = Blood testosterone level decreasing effect in mature male rat (0.1 mM peptide solution); format: in vivo
Experimental: as §1
In a manner similar to TEST EXAMPLE 14, evaluation was made using 0.1 mM peptide solution and a part of the results obtained are shown in TABLE 30.

[5] = Action of reducing testosterone level in blood in mature male rat (1 mM peptide in 50% DMSO, ALZET osmotic pump); format: in vivo; conditions: 1 mM peptide in 50% DMSO aqueous solution, ALZET osmotic pump s.c., six days

Row | Substance | intracellular Ca ion level-increasing activity [specific activity to Metastin (1-54)] (hOT7T175 [1]) | Specific Act. (EC50/MS10 EC50) (hOT7T175 [2]) | Teststerone level in Blood [3] | Teststerone level in Blood [4] | Testosterone level in Blood [5]
1 | 3-(3-Indolyl)propionyl-Phe-AzaGly-Leu-Arg(Me)-Trp-NH2 [Compound No. 354] | 10 | 0.8 | 43% |  | 
2 | 3-(3-Pyridyl)propionyl-Asn-Ser-Phe-AzaGly-Leu-Arg(Me)-Trp-NH2 [Compound No. 386] | 7 | 2.9 | 23% |  | 
3 | 3-Phenylpropionyl-Asn-Hyp-Phe-AzaGly-Leu-Arg(Me)-Trp-NH2 [Compound No. 517] |  | 1.0 | 79% |  | 
4 | 3-Phenylpropionyl-Asn-Ser-Phe(4F)-AzaGly-Leu-Arg(Me)-Trp-NH2 [Compound No. 508] | 10 | 1.0 | 9% |  | 
5 | 3-Phenylpropionyl-Asn-Thr-Phe-AzaGly-Leu-Arg(Me)-Trp-NH2 [Compound No. 505] | 20 | 0.7 | 40% |  | 
6 | Ac-[dY][dW]NTF[azaGly]L[Arg(Me)]F-NH2 [Compound No. 571] |  | 1.2 |  | 17% | 
7 | Ac-[dY][dW]NTF[azaGly]L[Arg(Me)]W-NH2 [Compound No. 550] |  | 0.7 |  | 2% | 
8 | Ac-[dY][dW]NVF[azaGly]L[Arg(Me)]W-NH2 [Compound No. 564] |  | 0.5 |  | 66% | 2%
9 | Arg-Acp-D-Tyr-D-Pya(4)-Asn-Ser-Phe-AzaGly-Leu-Arg(Me)-Trp-NH2 [Compound No. 538] |  | 3.3 |  | 45% | 
10 | Butyryl-[dY][dW]NTF[azaGly]L[Arg(Me)]W-NH2 [Compound No. 567] |  | 0.8 |  | 86% | 
11 | Bz-NS[Phe(4-F)][azaGly]L[Arg(Me)]W-NH2 [Compound No. 545] |  | 1.1 |  | 37% | 2%
12 | Bz-NT[Phe(4-F)][azaGly]L[Arg(Me)]W-NH2 [Compound No. 523] |  | 1.1 |  | 72% | 
13 | Bz-[dY][dW]NTF[azaGly]L[Arg(Me)]W-NH2 [Compound No. 565] |  | 0.6 |  | 80% | 
14 | Cyclopropanecarbonyl-D-Tyr-D-Trp-Asn-Thr-Phe-AzaGly-Leu-Arg(Me)-Trp-NH2 [Compound No. 566] |  | 0.8 |  | 89% | 
15 | D-Dap-Acp-D-Tyr-D-Trp-Asn-Thr-Phe-AzaGly-Leu-Arg(Me)-Trp-NH2 [Compound No. 552] |  | 2.3 |  | 21% | 
16 | D-Nle-Acp-D-Tyr-D-Trp-Asn-Thr-Phe-AzaGly-Leu-Arg(Me)-Trp-NH2 [Compound No. 553] |  | 1.9 |  | 39% | 
17 | D-Tyr-D-Pya(4)-Asn-Ser(Ac)-Phe-AzaGly-Leu-Arg(Me)-Trp-NH2 [Compound No. 547] |  | 2.5 |  | 65% | 
18 | GuAmb-Phe-AzaGly-Leu-Arg(Me)-Trp-NH2 [Compound No. 334] |  |  | 40% |  | 
19 | [dR][GABA][dY][dW]NTF[azaGly]L[Arg(Me)]W-NH2 [Compound No. 555] |  | 1.5 |  | 73% | 2%
20 | [dR][βAla][dY][dW]NTF[azaGly]L[Arg(Me)]W-NH2 [Compound No. 554] |  | 1.3 |  | 52% | 
21 | [dY][dW]NSF[azaGly]L[Arg(Me)]W-NH2 [Compound No. 540] |  | 0.7 |  | 55% | 
